Measurements: patent US9090615B2, “Adamantyl derivatives as cannabinoid receptor 2 agonists” (Hoffmann-La Roche Inc., priority 2012, dated 2015)
Like-named read-outs stand apart in the source and are kept apart here.

How the values were obtained:
human CB1 receptors = molecular target: T1, human CB1 receptors (Homo sapiens, UniProt P21554); experiment: functional cAMP assay, CHO cells expressing human CB1; assay type: cell-based
T1 construct: expressed in transfected cells; host or cells: CHO cells
T1 sequence (P21554 whole entry): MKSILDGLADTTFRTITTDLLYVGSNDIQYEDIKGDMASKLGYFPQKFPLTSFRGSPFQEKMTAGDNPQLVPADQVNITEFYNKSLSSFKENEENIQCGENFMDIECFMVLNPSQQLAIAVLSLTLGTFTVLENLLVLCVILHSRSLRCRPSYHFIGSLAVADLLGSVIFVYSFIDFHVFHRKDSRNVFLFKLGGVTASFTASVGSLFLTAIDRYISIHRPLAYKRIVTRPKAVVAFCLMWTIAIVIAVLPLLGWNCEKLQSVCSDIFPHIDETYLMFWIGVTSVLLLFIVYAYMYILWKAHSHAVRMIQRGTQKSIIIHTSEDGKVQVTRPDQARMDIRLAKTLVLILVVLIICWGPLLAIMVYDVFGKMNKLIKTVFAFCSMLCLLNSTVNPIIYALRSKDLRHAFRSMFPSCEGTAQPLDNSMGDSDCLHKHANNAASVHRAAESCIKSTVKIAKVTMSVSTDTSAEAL
Procedure: CHO cells expressing human CB1 or CB2 receptors are seeded 17-24 hours prior to the experiment 50.000 cells per well in a black 96 well plate with flat clear bottom (Corning Costar #3904) in DMEM (Invitrogen No. 31331), 1×HT supplement, with 10% fetal calf serum and incubated at 5% CO2 and 37° C. in a humidified incubator. The growth medium was exchanged with Krebs Ringer Bicarbonate buffer with 1 mM IBMX and incubated at 30° C. for 30 min. Compounds were added to a final assay volume of 100 μl and incubated for 30 min at 30° C. Using the cAMP-Nano-TRF detection kit the assay (Roche Diagnostics) was stopped by the addition of 50 μl lysis reagent (Tris, NaCl, 1.5% Triton X100, 2.5% NP40, 10% NaN3) and 50 μl detection solutions (20 μM mAb Alexa700-cAMP 1:1, and 48 μM Ruthenium-2-AHA-cAMP) and shaken for 2 h at room temperature. The time-resolved energy transfer is measured by a TRF reader (Evotec Technologies GmbH), equipped with a ND:YAG laser as excitation source. The plate is measured twice with the excitation at 355 nm and at the emission with a delay of 100 ns and a gate of 100 ns, total exposure time 10 s at 730 (bandwidth 30 nm) or 645 nm (bandwidth 75 nm), respectively. The FRET signal is calculated as follows: FRET=T730-Alexa730-P(T645-B645) with P=Ru730-B730/Ru645-B645, where T730 is the test well measured at 730 nM, T645 is the test well measured at 645 nm, B730 and B645 are the buffer controls at 730 nm and 645 nm, respectively. cAMP content is determined from the function of a standard curve spanning from 10 μM to 0.1 nM cAMP.
EC50 values were determined using Activity Base analysis (ID Business Solution, Limited). The EC50 values for a wide range of cannabinoid agonists generated from this assay were in agreement with the values published in the scientific literature.

human CB2 receptors = molecular target: T2, human CB2 receptors (Homo sapiens, UniProt P34972); experiment: functional cAMP assay, CHO cells expressing human CB2; assay type: cell-based
T2 construct: expressed in transfected cells; host or cells: CHO cells
T2 sequence (P34972 whole entry): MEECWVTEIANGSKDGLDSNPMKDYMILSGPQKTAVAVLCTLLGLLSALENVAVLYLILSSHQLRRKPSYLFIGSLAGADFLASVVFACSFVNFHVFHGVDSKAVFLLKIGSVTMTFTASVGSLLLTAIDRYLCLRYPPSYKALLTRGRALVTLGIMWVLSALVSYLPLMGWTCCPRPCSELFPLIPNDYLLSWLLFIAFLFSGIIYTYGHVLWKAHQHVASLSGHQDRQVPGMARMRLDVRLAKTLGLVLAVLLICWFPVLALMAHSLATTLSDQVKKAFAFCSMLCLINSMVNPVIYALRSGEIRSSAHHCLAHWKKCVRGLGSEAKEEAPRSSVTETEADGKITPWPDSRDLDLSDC
Procedure: The growth medium was exchanged with Krebs Ringer Bicarbonate buffer with 1 mM IBMX and incubated at 30° C. for 30 min. Compounds were added to a final assay volume of 100 μl and incubated for 30 min at 30° C. […] The time-resolved energy transfer is measured by a TRF reader (Evotec Technologies GmbH), equipped with a ND:YAG laser as excitation source. The plate is measured twice with the excitation at 355 nm and at the emission with a delay of 100 ns and a gate of 100 ns, total exposure time 10 s at 730 (bandwidth 30 nm) or 645 nm (bandwidth 75 nm), respectively.
EC50 values were determined using Activity Base analysis (ID Business Solution, Limited).

[1] = CHO cells expressing human CB1, read-out: Ec50:CB1 - hu cAMP
[2] = CHO cells expressing human CB2, read-out: Ec50:CB2 - hu cAMP

| EC50 (human CB2 receptors; [2]) [nM] | SMILES | EC50 (human CB1 receptors; [1]) [nM] | EC50 (human CB2 receptors) [nM] | EC50 (human CB1 receptors) [nM] |
| --- | --- | --- | --- | --- |
| 69.4 | O=C(N1CCc2ccccc2C1)C12CC3CC(CC(C3)C1)C2 [Example 1, Adamantan-1-yl-(3,4-dihydro-1H-isoquinolin-2-yl)-methanone] | > 10000 | – | – |
| 265 | O=C(N1CCC(O)c2ccccc21)C12CC3CC(CC(C3)C1)C2 (stereo not drawn) [Example 9, Adamantan-1-yl-(4-hydroxy-3,4-dihydro-2H-quinolin-1-yl)-methanone] | > 10000 | – | – |
| 261 | CC1Cc2ccccc2N1C(=O)C12CC3CC(CC(C3)C1)C2 (stereo not drawn) [Example 10, Adamantan-1-yl-(2-methyl-2,3-dihydro-indol-1-yl)-methanone] | > 10000 | – | – |
| – | CCOC1CCN(C(=O)C23CC4CC(CC(C4)C2)C3)c2ccccc21 (stereo not drawn) [Example 12, Adamantan-1-yl-(4-ethoxy-3,4-dihydro-2H-quinolin-1-yl)-methanone] | – | 18.6 | – |
| – | O=C(N1CCc2ccc([N+](=O)[O-])cc21)C12CC3CC(CC(C3)C1)C2 [Example 13, Adamantan-1-yl-(6-nitro-2,3-dihydro-indol-1-yl)-methanone] | – | 19.4 | > 10000 |
| 82 | O=C(N1CCc2cc([N+](=O)[O-])ccc21)C12CC3CC(CC(C3)C1)C2 [Example 14, Adamantan-1-yl-(5-nitro-2,3-dihydro-indol-1-yl)-methanone] | > 10000 | – | – |
| – | O=C(N1CCc2cc(Br)ccc21)C12CC3CC(CC(C3)C1)C2 [Example 15, Adamantan-1-yl-(5-bromo-2,3-dihydro-indol-1-yl)-methanone] | – | 11.5 | > 10000 |
| – | O=C(N1CCc2c(F)cc(F)cc21)C12CC3CC(CC(C3)C1)C2 [Example 16, Adamantan-1-yl-(4,6-difluoro-2,3-dihydro-indol-1-yl)-methanone] | – | 54 | > 10000 |
| – | O=C(N1CCc2ccc(C(F)(F)F)cc21)C12CC3CC(CC(C3)C1)C2 [Example 17, Adamantan-1-yl-(6-trifluoromethyl-2,3-dihydro-indol-1-yl)-methanone] | – | 14.6 | – |
| 70.6 | COC(=O)c1ccc2c(c1)CCN2C(=O)C12CC3CC(CC(C3)C1)C2 [Example 19, 1-(Adamantane-1-carbonyl)-2,3-dihydro-1H-indole-5-carboxylic acid methyl ester] | > 10000 | – | – |
| 19.9 | O=C(N1Cc2ccccc2C1)C12CC3CC(CC(C3)C1)C2 [Example 21, Adamantan-1-yl-(1,3-dihydro-isoindol-2-yl)-methanone] | – | – | – |
| – | COc1cccc2c1N(C(=O)C13CC4CC(CC(C4)C1)C3)CC2 [Example 22, Adamantan-1-yl-(7-methoxy-2,3-dihydro-indol-1-yl)-methanone] | – | 26.4 | > 10000 |
| – | CC1(C)CN(C(=O)C23C[C@H]4C[C@@H](C2)C[C@@H](C3)C4)c2ccccc21 [Example 23, Adamantan-1-yl-(3,3-dimethyl-2,3-dihydro-indol-1-yl)-methanone] | – | 15.9 | > 10000 |
| – | COC(=O)c1cccc2c1CCN2C(=O)[C@]12C[C@H]3C[C@H](C[C@H](C3)C1)C2 [Example 24, 1-(Adamantane-1-carbonyl)-2,3-dihydro-1H-indole-4-carboxylic acid methyl ester] | – | 42.1 | > 10000 |
| 10.4 | Cc1ccc2c(c1)CCN2C(=O)C12CC3CC(CC(C3)C1)C2 [Example 26, Adamantan-1-yl-(5-methyl-2,3-dihydro-indol-1-yl)-methanone] | > 10000 | – | – |
| 6.6 | Cc1ccc2c(c1)N(C(=O)C13CC4CC(CC(C4)C1)C3)CC2 [Example 27, Adamantan-1-yl-(6-methyl-2,3-dihydro-indol-1-yl)-methanone] | > 10000 | – | – |
| – | Cc1cccc2c1N(C(=O)C13CC4CC(CC(C4)C1)C3)CC2 [Example 28, Adamantan-1-yl-(7-methyl-2,3-dihydro-indol-1-yl)-methanone] | – | 55.7 | – |
| 29.6 | COc1cccc2c1CCN2C(=O)C12CC3CC(CC(C3)C1)C2 [Example 29, Adamantan-1-yl-(4-methoxy-2,3-dihydro-indol-1-yl)-methanone] | > 10000 | – | – |
| 4.3 | Cc1cccc2c1CCN2C(=O)C12CC3CC(CC(C3)C1)C2 [Example 30, Adamantan-1-yl-(4-methyl-2,3-dihydro-indol-1-yl)-methanone] | – | – | – |
| – | CN1CCN(C(=O)C23C[C@H]4C[C@@H](C2)C[C@@H](C3)C4)c2ccccc21 [Example 31, Adamantan-1-yl-(4-methyl-3,4-dihydro-2H-quinoxalin-1-yl)-methanone] | – | 28.9 | > 10000 |
| – | CC(C)N1CCN(C(=O)C23CC4CC(CC(C4)C2)C3)c2ccccc21 [Example 32, Adamantan-1-yl-(4-isopropyl-3,4-dihydro-2H-quinoxalin-1-yl)-methanone] | – | 6.2 | > 10000 |
| – | COCCOC1CCN(C(=O)C23CC4CC(CC(C4)C2)C3)c2ccccc21 (stereo not drawn) [Example 33, Adamantan-1-yl-[4-(2-methoxy-ethoxy)-3,4-dihydro-2H-quinolin-1-yl]-methanone] | – | 21.3 | – |
| 27.2 | COC1CCN(C(=O)C23CC4CC(CC(C4)C2)C3)c2ccccc21 (stereo not drawn) [Example 36, Adamantan-1-yl-(4-methoxy-3,4-dihydro-2H-quinolin-1-yl)-methanone] | – | – | – |
| 492 | O=C(N1CCc2ccccc21)C12CC3CC(CC(O)(C3)C1)C2 [Example 41, (2,3-Dihydro-indol-1-yl)-(3-hydroxy-adamantan-1-yl)-methanone] | – | – | – |
| 22.1 | O=C(NC12CC3CC(CC(C3)C1)C2)N1Cc2ccccc2C1 [Example 42, 1,3-Dihydro-isoindole-2-carboxylic acid adamantan-1-ylamide] | – | – | – |

| SMILES | EC50 (human CB2 receptors; [2]) [nM] | EC50 (human CB1 receptors; [1]) [nM] | EC50 (human CB2 receptors) [nM] | EC50 (human CB1 receptors) [nM] |
| --- | --- | --- | --- | --- |
| O=C(N1CCCc2ccccc21)C12CC3CC(CC(C3)C1)C2 [Example 2, Adamantan-1-yl-(3,4-dihydro-2H-quinolin-1-yl)-methanone] | 71.6 | – | – | – |
| O=C1CCN(C(=O)C23CC4CC(CC(C4)C2)C3)c2ccccc21 [Example 3, 1-(Adamantane-1-carbonyl)-2,3-dihydro-1H-quinolin-4-one] | 330 | > 10000 | – | – |
| CC(C)(C)NC(=O)C1CCN(C(=O)C23CC4CC(CC(C4)C2)C3)c2ccccc21 (stereo not drawn) [Example 4, 1-(Adamantane-1-carbonyl)-1,2,3,4-tetrahydro-quinoline-4-carboxylic acid tert-butylamide] | 445 | > 10000 | – | – |
| COC(=O)C1Cc2ccccc2N(C(=O)C23CC4CC(CC(C4)C2)C3)C1 (stereo not drawn) [Example 5, 1-(Adamantane-1-carbonyl)-1,2,3,4-tetrahydro-quinoline-3-carboxylic acid methyl ester] | 221 | > 10000 | – | – |
| CC(C)C1(CO)CCN(C(=O)C23CC4CC(CC(C4)C2)C3)c2ccccc21 (stereo not drawn) [Example 6, Adamantan-1-yl-(4-hydroxymethyl-4-isopropyl-3,4-dihydro-2H-quinolin-1-yl)-methanone] | 400 | > 10000 | – | – |
| O=C(N1CCOc2ccccc21)C12CC3CC(CC(C3)C1)C2 [Example 7, Adamantan-1-yl-(2,3-dihydro-benzo[1,4]oxazin-4-yl)-methanone] | 180 | > 10000 | – | – |
| Cc1cccc2c1N(C(=O)C13CC4CC(CC(C4)C1)C3)CCC2 [Example 8, Adamantan-1-yl-(8-methyl-3,4-dihydro-2H-quinolin-1-yl)-methanone] | 277 | > 10000 | – | – |
| O=C(N1CCc2ccccc21)C12CC3CC(CC(C3)C1)C2 [Example 11, Adamantan-1-yl-(2,3-dihydro-indol-1-yl)-methanone] | 23.2 | – | – | – |
| O=C(N1CCc2cc(F)ccc21)C12CC3CC(CC(C3)C1)C2 [Example 18, Adamantan-1-yl-(5-fluoro-2,3-dihydro-indol-1-yl)-methanone] | 4.6 | – | – | – |
| O=C(N1CCc2c1ccnc2Cl)C12CC3CC(CC(C3)C1)C2 [Example 20, Adamantan-1-yl-(4-chloro-2,3-dihydro-pyrrolo[3,2-c]pyridin-1-yl)-methanone] | 273 | > 10000 | – | – |
| CC1c2ccccc2N(C(=O)C23C[C@H]4C[C@@H](C2)C[C@@H](C3)C4)C1C (stereo partly drawn) [Example 25, Adamantan-1-yl-(2,3-dimethyl-2,3-dihydro-indol-1-yl)-methanone] | 163 | > 10000 | – | – |
